The assay relates to P. falciparum NF54 (MRA-1000). The experiment in a line: SYBR Green I growth inhibition assay, NF54. The following applies: early-ring stage, 72 h exposure. Type of assay: cell-based, Plasmodium falciparum. As for the experimental part:
Fig. 1. […] (B) SYBR Green–based dose response assays were conducted on early-ring stage parasites (6 hours after invasion). […] 3D7 WT (blue), NF54 (green), drug-resistant strains Dd2 (red), HB3 (black), W2 (gray), and D10-ACP-GFP (purple) lines (Sigmoidal, 4PL, X is concentration, n ≥ 3, nonlinear regression, CI: 95%). (C) Schematic diagram of the development of P. falciparum after two consecutive erythrocytic cycles. The time points at which MED6-189 was introduced are depicted in green. HPS, hours post synchronization. […] The images depict various developmental stages of the parasite’s intraerythrocytic life cycle. Bordered images represent time points when drug was first introduced (n = 3 biological replicates, P < 0.05).
Detailed information on materials and methods is available in the supplementary materials. […] P. knowlesi assays were quantitatively measured by flow cytometry using SYBR Green I and Mitrotracker Deep Red, as previously described ([84], [85]), on a Beckman Coulter CytoFLEX. […]
P. falciparum in vitro SYBR green fluorescence-based assays The anti-malarial activity of individual analogues were evaluated in-vitro against P. falciparum 3D7 (MRA-102, drug […]
green-I based fluorescence assay. Parasite growth rate and stages of development were determined via microscopy through Giemsa-stained smears of the cultures. […]

For orientation: IC50 means the point on the concentration scale where inhibition reaches its midpoint. Low readings indicate greater potency in that assay, high ones weaker potency in that assay. As for `[C-]#[N+][C@]1(C)CC[C@H]2[C@@H]([C@@H](C(C)C)CC[C@]2(C)[N+]#[C-])[C@H]1O` [MED6-189], inhibition was half-maximal at 27 nM (IC50). In addition, the IC50 (Plasmodium falciparum, NF54, 72 h) worked out at 28 ± 5 nM.

For the origin of these results see publication PMC11793105, “A kalihinol analog disrupts apicoplast function and vesicular trafficking in P. falciparum malaria” (Science (New York, N.Y.), 2024).
